# Reference: the supplement of paper PMC10307832
# Experiments:
# Test in all cases: relative viability (nuclei count vs DMSO), 5 days (fraction); higher = more cells survive
# [1] = system: PC-14
# Method in brief: (§1)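 Cells from lung cancer lines were seeded into 1536-well plates and, one day later, dosed by pin tool. Treatments were either a single drug or a fixed dose of an anchor drug with five library-drug doses (not always all listed) in √10 steps. After 5 days, nuclei were stained in a one-step fixation (final 0.05% Triton X-100, 1% formaldehyde, 1 ug/ml Hoechst) and counted on 4× images, and relative viability is the treated-to-vehicle nuclei ratio, as the median of duplicate plates.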
# [2] = system: NCI-H838
# Method in brief: as §1
# [3] = system: HCC-15
# Method in brief: as §1
# [4] = system: UMC-11
# Method in brief: as §1
# [5] = system: NCI-H1793
# Method in brief: as §1
# [6] = system: NCI-H1355
# Method in brief: as §1
# [7] = system: NCI-H2342
# Method in brief: as §1
# [8] = system: NCI-H2170
# Method in brief: as §1
# [9] = system: NCI-H647
# Method in brief: as §1
# [10] = system: COR-L23
# Method in brief: as §1
# [11] = system: SK-MES-1
# Method in brief: as §1
# [12] = system: COR-L 105
# Method in brief: as §1
# [13] = system: NCI-H2009
# Method in brief: as §1
# [14] = system: NCI-H358
# Method in brief: as §1
# [15] = system: NCI-H1734
# Method in brief: as §1
# [16] = system: HOP-62
# Method in brief: as §1
# [17] = system: NCI-H1755
# Method in brief: as §1
# [18] = system: NCI-H1395
# Method in brief: as §1
# [19] = system: EKVX
# Method in brief: as §1
# [20] = system: NCI-H1993
# Method in brief: as §1
# [21] = system: NCI-H2347
# Method in brief: as §1
# [22] = system: HARA
# Method in brief: as §1
compound,measurement,setting,value
O=C(O)c1ccc(-c2c[nH]c3ncc(-c4ccccc4)cc23)cc1C1CCCC1 + Nc1ncn([C@H]2C[C@H](O)[C@@H](CO)O2)c(=O)n1 [Decitabine] (partner 2 µM),relative viability,[1]; first compound 0.04 µM,0.19
same,relative viability,[1]; first compound 0.1265 µM,0.211
same,relative viability,[1]; first compound 0.4 µM,0.213
same,relative viability,[1]; first compound 1.265 µM,0.195
same,relative viability,[2]; first compound 0.04 µM,0.45
same,relative viability,[2]; first compound 0.1265 µM,0.475
same,relative viability,[2]; first compound 0.4 µM,0.416
same,relative viability,[2]; first compound 1.265 µM,0.357
same,relative viability,[3]; first compound 0.04 µM,0.641
same,relative viability,[3]; first compound 0.1265 µM,0.673
same,relative viability,[3]; first compound 0.4 µM,0.608
same,relative viability,[3]; first compound 1.265 µM,0.381
same,relative viability,[4]; first compound 0.04 µM,0.653
same,relative viability,[4]; first compound 0.1265 µM,0.565
same,relative viability,[4]; first compound 0.4 µM,0.497
same,relative viability,[4]; first compound 1.265 µM,0.626
same,relative viability,[5]; first compound 0.04 µM,0.434
same,relative viability,[5]; first compound 0.1265 µM,0.527
same,relative viability,[5]; first compound 0.4 µM,0.519
same,relative viability,[5]; first compound 1.265 µM,0.334
same,relative viability,[6]; first compound 0.04 µM,0.337
same,relative viability,[6]; first compound 0.1265 µM,0.331
same,relative viability,[6]; first compound 0.4 µM,0.408
same,relative viability,[6]; first compound 1.265 µM,0.307
same,relative viability,[7]; first compound 0.04 µM,0.724
same,relative viability,[7]; first compound 0.1265 µM,0.663
same,relative viability,[7]; first compound 0.4 µM,0.836
same,relative viability,[7]; first compound 1.265 µM,0.731
same,relative viability,[8]; first compound 0.04 µM,0.459
same,relative viability,[8]; first compound 0.1265 µM,0.478
same,relative viability,[8]; first compound 0.4 µM,0.437
same,relative viability,[8]; first compound 1.265 µM,0.437
same,relative viability,[9]; first compound 0.04 µM,0.535
same,relative viability,[9]; first compound 0.1265 µM,0.409
same,relative viability,[9]; first compound 0.4 µM,0.388
same,relative viability,[9]; first compound 1.265 µM,0.283
same,relative viability,[10]; first compound 0.04 µM,0.446
same,relative viability,[10]; first compound 0.1265 µM,0.414
same,relative viability,[10]; first compound 0.4 µM,0.365
same,relative viability,[10]; first compound 1.265 µM,0.327
same,relative viability,[11]; first compound 0.04 µM,0.335
same,relative viability,[11]; first compound 0.1265 µM,0.398
same,relative viability,[11]; first compound 0.4 µM,0.363
same,relative viability,[11]; first compound 1.265 µM,0.328
same,relative viability,[12]; first compound 0.04 µM,0.68
same,relative viability,[12]; first compound 0.1265 µM,0.62
same,relative viability,[12]; first compound 0.4 µM,0.703
same,relative viability,[12]; first compound 1.265 µM,0.72
same,relative viability,[13]; first compound 0.04 µM,0.411
same,relative viability,[13]; first compound 0.1265 µM,0.415
same,relative viability,[13]; first compound 0.4 µM,0.398
same,relative viability,[13]; first compound 1.265 µM,0.347
same,relative viability,[14]; first compound 0.04 µM,0.193
same,relative viability,[14]; first compound 0.1265 µM,0.218
same,relative viability,[14]; first compound 0.4 µM,0.172
same,relative viability,[14]; first compound 1.265 µM,0.115
same,relative viability,[15]; first compound 0.04 µM,0.528
same,relative viability,[15]; first compound 0.1265 µM,0.499
same,relative viability,[15]; first compound 0.4 µM,0.461
same,relative viability,[15]; first compound 1.265 µM,0.437
same,relative viability,[16]; first compound 0.04 µM,0.166
same,relative viability,[16]; first compound 0.1265 µM,0.241
same,relative viability,[16]; first compound 0.4 µM,0.203
same,relative viability,[16]; first compound 1.265 µM,0.239
same,relative viability,[17]; first compound 0.04 µM,0.699
same,relative viability,[17]; first compound 0.1265 µM,0.753
same,relative viability,[17]; first compound 0.4 µM,0.713
same,relative viability,[17]; first compound 1.265 µM,0.705
same,relative viability,[18]; first compound 0.04 µM,0.727
same,relative viability,[18]; first compound 0.1265 µM,0.697
same,relative viability,[18]; first compound 0.4 µM,0.731
same,relative viability,[18]; first compound 1.265 µM,0.728
same,relative viability,[19]; first compound 0.04 µM,0.341
same,relative viability,[19]; first compound 0.1265 µM,0.362
same,relative viability,[19]; first compound 0.4 µM,0.336
same,relative viability,[19]; first compound 1.265 µM,0.368
same,relative viability,[20]; first compound 0.04 µM,0.552
same,relative viability,[20]; first compound 0.1265 µM,0.547
same,relative viability,[20]; first compound 0.4 µM,0.613
same,relative viability,[20]; first compound 1.265 µM,0.644
same,relative viability,[21]; first compound 0.04 µM,0.609
same,relative viability,[21]; first compound 0.1265 µM,0.603
same,relative viability,[21]; first compound 0.4 µM,0.647
same,relative viability,[21]; first compound 1.265 µM,0.582
same,relative viability,[22]; first compound 0.04 µM,0.372
same,relative viability,[22]; first compound 0.1265 µM,0.643
same,relative viability,[22]; first compound 0.4 µM,0.477
same,relative viability,[22]; first compound 1.265 µM,0.354
